Where two headings read alike, the source gives them in different places.
Tests used:
Type in all cases: physicochemical
[1] = pFTAA binding assay of synthetic peptides; conditions: 200 μM peptide, rotation 5 days, room temperature; pFTAA 0.5 μM
Text: (§1) In the interest of improving the current description of the familiar amyloidogenic protein dataset, we selected and synthesised a subset of 96 peptides corresponding to strong aggregation prone regions identified in these proteins by Cordax. Apart of prediction strength, the peptide screen was also selectively constructed to ensure broad sequence variability and a wide distribution on the proteins of the dataset, with a preference for longer entries defined by inadequate previous characterisation. Peptide sequences were cross-checked and filtered to exclude overlapping sequences with previously identified amyloid regions and WALTZ-DB (see Table 2). The remaining selection of 96 peptides were synthesized using standard solid phase synthesis and their amyloid-forming properties were initially examined using Thioflavin-T (Th-T) or pFTAA binding, following rotating incubation for 5 days at room temperature. The binding assays are complementary, as Th-T and pFTAA are opposingly charged molecules, which increases the amyloid identification rate by overcoming cases of dye-specific failure to bind to amyloid surfaces based on charge repulsion. Under these conditions, 66 peptides successfully bind the specific dyes (FIGS. 3a & 3b) by forming fibrils with typical amyloid morphologies and properties that were verified using transmission electron microscopy (FIG. 3c) and Congo red staining for selected cases (FIG. 3d). As these dyes are known to yield false negatives, in particular for short peptides, all dye-negative peptides were further investigated using electron microscopy. During this scan, we recovered 19 additional sequences that were capable of forming sparse amyloid-like fibrils with shorter lengths (see FIG. 8).
(§2) Peptides derived from the Cordax validation set were synthesized using an Intavis Multipep RSi solid phase peptide synthesis robot. Peptide purity (>90%) was evaluated using RP-HPLC purification protocols and peptides were stored as ether precipitates (−20° C.). Peptide stocks were initially treated with 1,1,1,3,3,3-hexafluoro-isopropanol (HFIP) (Merck), then dissolved in traces of dimethyl sulfoxide (DMSO) (Merck) (<5%), filtered through 0.2 μm filters and finally in milli-Q water to reach a final concentration of 200 μM or up to 1 mM for dye-negative peptides. Dithiothreitol (DTT) (1 mM) was included in solutions of peptides spanning cysteine or methionine residues. All peptides were incubated at room temperature for a period of 5 days on a rotating wheel.
(§3) Amyloid aggregation was monitored using fluorescent spectroscopy binding assays. Th-T (Sigma) or pFTAA (Ebba Biotech AB) was added in half-area black 96-well microplates (Corning, USA) at a final concentration of 25 μM and 0.5 μM, respectively. Fluorescence intensity was measured in replicates (n=6) using a PolarStar Optima and a FluoStar Omega plate reader (BMG Labtech, Germany), equipped with an excitation filter at 440 nm and emission filters at 480 nm and 510 nm, respectively.

[2] = Thioflavin-T binding assay of synthetic peptides; conditions: 200 μM peptide, rotation 5 days, room temperature; Th-T 25 μM
Text: as §1, §2, §3

[3] = Transmission electron microscopy of peptide fibrils
Text: as §1
(§4) Peptide solutions were incubated for 5 days at room temperature in order to form mature amyloid-like fibrils. Suspensions (5 μL) of each peptide solution were added on 400-mesh carbon-coated copper grids (Agar Scientific Ltd., England), following a glow-discharging step of 30 s to improve sample adsorption. Grids were washed with milli-Q water and negatively stained using uranyl acetate (2% w/v in milli-Q water). Grids were examined with a JEM-1400 120 kV transmission electron microscope (JEOL, Japan), operated at […].

[4] = Amyloid-forming properties of the peptide screen (overall call from Th-T, pFTAA, TEM)
Text: as §1, with “8). […]” for “8).”
as §2, §3, §4

[5] = amyloid-like fibrils after 5 days at room temperature

Substance	pFTAA Binding [1]	Th-T Binding [2]	TEM [3, 5]	Amyloid ([4]; overall amyloid-forming call)	TEM [3]	Amyloid [4]
IIYNWQ	●	●	●	●		
SYVLQT	●	●		●		
MDVFMK	●	●		●		
TLFTMD			●	●		
TKVIPY	●			●		
AAYLWV	●	●	●	●		
VVVNKM	●			●		
YFHARG			●	●		
HYYAVA	●			●		
QVFVWV	●	●	●	●		
GWFLGW		●		●		
EDCFIL	●	●		●		
FEYVQL	●	●		●		
TIFLDF	●			●		
AEIEIE	●	●	●	●		
YDLHYW	●	●	●	●		
ILLLFE	●	●	●	●		
IGYNIK			●	●		
SNFLRA			●	●		
LYHGQT			●	●		
CEFLRK	●			●		

Substance	pFTAA Binding [1]	Th-T Binding [2]	TEM [3, 5]	Amyloid ([4]; overall amyloid-forming call)	TEM [3]	Amyloid [4]
LVMELD	●	●		●		
GVIHYI			●	●		
FYAVRL			●	●		
NDAFVL	●	●	●	●		
VYVDVL	●	●	●	●		
VNFSEF	●	●	●	●		
VDMAMC	●	●		●		
MVVEHP	●			●		
IQIHHY			●	●		
SVDYEV	●			●		
LNLKLL	●			●		
LQVDLG	●	●		●		
MDKVER			●	●		
YIILYN	●	●	●	●		
EVYKWT	●			●		
FSFTIA	●	●		●		
FKVAIV	●			●		
AYVILK	●			●		
MSVSLV	●	●		●		
LIFMGH	●	●		●		
LIVSIL	●	●		●		

Substance	pFTAA Binding [1]	Th-T Binding [2]	TEM [3, 5]	Amyloid ([4]; overall amyloid-forming call)	TEM [3]	Amyloid [4]
TDVVFM	●	●		●		
IGVVGW	●	●		●		
SEFSKK	●			●		
YFTAIQ	●	●		●		
AFFLFC	●	●		●		
MLHKEF		●		●		
STVISY	●	●	●	●		
VNIELL	●	●		●		
FVIEEV	●	●	●	●		
YQLVLQ	●	●	●	●		
VHIVKL	●		●	●		
DCFEYV	●	●		●		
SQFIKL			●	●		
IGINIK			●	●		
LSIWES	●	●		●		
LHCLRR	●			●		
LLFKDS			●	●		
MYVSEM	●	●		●		
LNSVFK			●	●		
MFSEFD	●	●		●		
FLGYFK			●	●		

Substance	pFTAA Binding [1]	Th-T Binding [2]	TEM [3, 5]	Amyloid ([4]; overall amyloid-forming call)	TEM [3]	Amyloid [4]
VYTVFA	●	●		●		
GYTLFS			●	●		
DLVVFE	●	●		●		
IQVYSR	●	●	●	●		
LLVYNK			●	●		
IFTVQL	●	●	●	●		
INAWLF	●	●		●		
GYLTIR			●	●		
LLDNWD	●			●		
MELIVS	●	●		●		
INFEFS	●	●		●		
LYHLVT			●	●		
LCSTFC	●	●		●		
GDVAFI	●	●		●		
QVYYRP					●	●
YVAGIT	●	●		●		
GWNIPM	●			●		
QIIEIE	●	●		●		
NLYEKT	●			●		
MIIYKG	●			●		

From patent US20230245725A1, “Means and Methods for the Prediction of Amyloid Core Sequences” (VIB VZW, priority 2020, published 2023)
